Measured values: patent publication US20100022559A1, “BISOXIMES AS FUNGICIDES” (BAYER CROPSCIENCE AG, priority 2006, published 2010)

Assay: logP determination by HPLC on a reversed-phase column (C 18), EEC Directive 79/831 Annex V.A8
Format: physicochemical
Description: The stated logP values were determined in accordance with EEC Directive 79/831 Annex V.A8 by HPLC (high performance liquid chromatography) on a reversed-phase column (C 18). Temperature: 43° C.

SMILES | logP (value marked [b]) | logP (method marked [b] in Table 1) | further results
CC(=NOCC(C)(C)CON=C(C)c1ccc2c(n1)CCC2)c1ccc2c(n1)CCC2 [Compound 301] |  |  | logP (value marked [a]): 4.78^[a]
CC(=NOCCCON=C(C)c1ccc2c(n1)CCC2)c1ccc2c(n1)CCC2 [Compound 302] |  |  | logP (value marked [a]): 3.28^[a]
CC(=NOCC(C)(C)CON=C(C)c1ccc2c(n1)CCCC2)c1ccc2c(n1)CCCC2 [Compound 303] |  |  | logP (value marked [a]): 5.49^[a]
CC(=NOCC(C)CON=C(C)c1ccc2c(n1)CCCC2)c1ccc2c(n1)CCCC2 (stereo not drawn) [Compound 304] |  |  | logP (value marked [a]): 4.69^[a]
CCc1nc(C(C)=NOCC(C)CON=C(C)c2ccc(C)c(CC)n2)ccc1C (stereo not drawn) [Compound 310] | 6.48^[b] |  | 
CC(=NOCC1(CON=C(C)c2ccc(C)c(C)n2)CC1)c1ccc(C)c(C)n1 [Compound 315] | 2.84^[b] |  | logP (value marked [c]): 6.08^[c]
CCCC(CON=C(C)c1ccc(C)c(C)n1)CON=C(C)c1ccc(C)c(C)n1 (stereo not drawn) [Compound 316] | 4.48^[b] |  | logP (value marked [c]): 7.23^[c]
CC(=NOCC(CON=C(C)c1ccc(C)c(C)n1)C(C)(C)C)c1ccc(C)c(C)n1 (stereo not drawn) [Compound 317] | 4.91^[b] |  | logP (value marked [c]): 7.36^[c]
CC(=NOCC(CON=C(C)c1ccc(C)c(C)n1)c1ccccc1)c1ccc(C)c(C)n1 (stereo not drawn) [Compound 318] | 4.02^[b] |  | logP (value marked [c]): 6.45^[c]
CC(=NOCC1(CON=C(C)c2ccc(C)c(C)n2)CCC1)c1ccc(C)c(C)n1 [Compound 319] | 4.07^b] |  | logP (value marked [c]): 7.05^[c]
CC(=NOCC1(CON=C(C)c2ccc(C)c(C)n2)CCCCC1)c1ccc(C)c(C)n1 [Compound 320] | 5.34^[b] |  | logP (value marked [c]): 7.36^[c]
COC(CON=C(C)c1ccc(C)c(C)n1)CON=C(C)c1ccc(C)c(C)n1 (stereo not drawn) [Compound 321] | 1.95^[b] |  | logP (value marked [c]): 5.06^[c]
CC(=NOC(C)CC(C)ON=C(C)c1ccc(C)c(C)n1)c1ccc(C)c(C)n1 (stereo not drawn) [Compound 322] | 3.4^[b] |  | logP (value marked [c]): 6.79^[c]
CCC(=NOCCCCCCON=C(C)c1cccc(C)n1)c1cccc(C)n1 [Compound 346] | 5.59^[b] |  | 
C=C(CON=C(C)c1cccc(C)n1)CON=C(C)c1cccc(Cc2ccccc2)n1 [Compound 350] | 5.71^[b] |  | 
C=C(CON=C(C)c1cccc(C)n1)CON=C(c1cccc(C)n1)C(C)C [Compound 359] | 4.72^[b] (isomer B) |  | 
CC(=NOCC(C)(C)CON=C(C)c1cccc(Cc2ccccc2)n1)c1cccc(C)n1 [Compound 364] |  |  | logP (value marked [a]): 6.47^[a]
CC(=NOCC(C)(C)CON=C(C)c1cccc(CC(C)C)n1)c1cccc(C)n1 [Compound 367] | 7.07^[b] |  | 
CCc1cccc(C(C)=NOCC(C)(C)CON=C(C)c2cccc(C)n2)n1 [Compound 370] | 5.78^[b] |  | 
CC(=NOCC(C)(C)CON=C(c1ccccc1)c1cccc(C)n1)c1cccc(C)n1 [Compound 371] | 4.51^[b] |  | 
CCC(=NOCC(C)(C)CON=C(C)c1cccc(C)n1)c1cccc(C)n1 [Compound 372] | 5.33^[b] |  | 
CC(=NOCCCCON=C(C)c1cccc(C)n1)c1cc(C)ccn1 [Compound 373] | 2.66^[b] |  | 
CC(=NOCCCCON=C(C)c1cccc(C)n1)c1cccc(C(F)(F)F)c1 [Compound 375] | 5.54^[b] |  | 
CC(=NOCCCCON=C(C)c1cccc(C)n1)c1ccccn1 [Compound 376] | 3.11^[b] |  | 

SMILES | logP (value marked [b]) | logP (method marked [b] in Table 1) | further results
CC(=NOCC(C)(C)CON=C(C)c1cccc(C)n1)c1ccc(C)nc1 [Compound 416] | 2.41^[b] |  | 
CC(=NOCC(C)CON=C(C)c1cccc(Cc2ccccc2)n1)c1cccc(C)n1 (stereo not drawn) [Compound 420] | 6.09^[b] |  | 
CC(=NOCC(C)CON=C(C)c1cccc(CC(C)C)n1)c1cccc(C)n1 (stereo not drawn) [Compound 423] | 6.51^[b] |  | 
CCCC(=NOCC(C)CON=C(C)c1cccc(C)n1)c1cccc(C)n1 (stereo not drawn) [Compound 427] | 5.31^[b] |  | 
CCC(=NOCC(C)CON=C(C)c1cccc(C)n1)c1cccc(C)n1 (stereo not drawn) [Compound 428] | 4.51^[b] |  | 
CC(=NOCC(C)CON=C(c1cccc(C)n1)C1CC1)c1cccc(C)n1 (stereo not drawn) [Compound 429] | 3.61^[b] |  | 
CC(=NOCCCCCCON=C(C)c1cc(C)cc(C)n1)c1cccc(C)n1 [Compound 460] | 3.51^[b] |  | 
C=C(CON=C(C)c1cccc(C)n1)CON=C(C)c1cc(C)cc(C)n1 [Compound 474] | 2.55^[b] |  | 
C=C(CON=C(C)c1cccc(C)n1)CON=C(C)c1cccc(CCC)n1 [Compound 477] | 5.42^[b] |  | 
CC(=NOCC(C)(C)CON=C(C)c1cccc(C)n1)c1cccc(Cl)c1 [Compound 483] | 6.22^[b] |  | 
CC(=NOCC(C)(C)CON=C(C)c1ccc(Cl)s1)c1cccc(C)n1 [Compound 486] | 5.84^[b] |  | 
CC(=NOCC(C)(C)CON=C(C)c1cc(C)cc(C)n1)c1cccc(C)n1 [Compound 487] | 3.33^[b] |  | 
CC(=NOCC(C)(C)CON=C(C)c1cccc(C(C)C)n1)c1cccc(C)n1 [Compound 491] | 6.87^[b] |  | 
COc1cccc(C(C)=NOCC(C)CON=C(C)c2cccc(C)n2)c1 (stereo not drawn) [Compound 495] | 4.80^[b] |  | 
CC(=NOCC(C)CON=C(C)c1cc(C)cc(C)n1)c1cccc(C)n1 (stereo not drawn) [Compound 499] | 2.76^[b] |  | 
COc1cc(C)nc(C(C)=NOCC(C)CON=C(C)c2cccc(C)n2)c1 (stereo not drawn) [Compound 501] | 3.37^[b] |  | 
CCCc1cccc(C(C)=NOCC(C)CON=C(C)c2cccc(C)n2)n1 (stereo not drawn) [Compound 502] | 5.84^[b] |  | 
CC(=NOCC(C)CON=C(C)c1cccc(C(C)C)n1)c1cccc(C)n1 (stereo not drawn) [Compound 504] | 6.29^b] |  | 
CC(=NOCCCCCCON=C(C)c1nccc(C)n1)c1cccc(C)n1 [Compound 509] | 3.39^[b] |  | 
CC(=NOCCC(C)ON=C(C)c1ccc(C)c(C)n1)c1ccc(C)c(C)n1 (stereo not drawn) [Compound 519] | 2.75^[b] |  | logP (value marked [c]): 6.27^[c]
CC(=NOCC(C)(C)CON=C(CC(C)C)c1cccc(C)n1)c1cccc(C)n1 [Compound 538] |  | 6.47^[b] | 
CC(=NOC/C=C\CON=C(C)c1ccccn1)c1ccccn1 [Compound 541] |  | 3.04^[b] | 
CCCc1nc(C(C)=NOCC(C)CON=C(C)c2ccc(C)c(CCC)n2)ccc1C (stereo not drawn) [Compound 550] |  |  | logP (method marked [c] in Table 1): 7.36^[c]
COC(CON=C(C)c1cc(C)cc(C)n1)CON=C(C)c1cc(C)cc(C)n1 (stereo not drawn) [Compound 552] |  | 1.56^[b] | logP (method marked [c] in Table 1): 4.91^[c]

SMILES | logP (value marked [b]) | logP (method marked [b] in Table 1) | further results
CC(=NOCC1(CON=C(C)c2cc(C)cc(C)n2)CCCCC1)c1cc(C)cc(C)n1 [Compound 553] |  | 3.87^[b] | logP (method marked [c] in Table 1): 7.36^[c]
CC(=NOCC(CON=C(C)c1cc(C)cc(C)n1)c1ccccc1)c1cc(C)cc(C)n1 (stereo not drawn) [Compound 554] |  | 2.96^[b] | logP (method marked [c] in Table 1): 6.33^[c]
CCCC(CON=C(C)c1cc(C)cc(C)n1)CON=C(C)c1cc(C)cc(C)n1 (stereo not drawn) [Compound 555] |  | 3.22^[b] | logP (method marked [c] in Table 1): 7.15^[c]
CC(=NOCC1(CON=C(C)c2cc(C)cc(C)n2)CC1)c1cc(C)cc(C)n1 [Compound 556] |  | 2.11^[b] | logP (method marked [c] in Table 1): 5.97^[c]
CC(=NOC(C)CC(C)ON=C(C)c1cc(C)cc(C)n1)c1cc(C)cc(C)n1 (stereo not drawn) [Compound 557] |  | 2.39^[b] | logP (method marked [c] in Table 1): 6.63^[c]
CC(=NOCCC(C)ON=C(C)c1cc(C)cc(C)n1)c1cc(C)cc(C)n1 (stereo not drawn) [Compound 558] |  | 2.00^[b] | logP (method marked [c] in Table 1): 6.11^[c]
CC(=NOCC(CON=C(C)c1cc(C)cc(C)n1)C(C)(C)C)c1cc(C)cc(C)n1 (stereo not drawn) [Compound 559] |  | 3.60^[b] | logP (method marked [c] in Table 1): 7.36^[c]
CC(=NOCC1(CON=C(C)c2cccc(C)n2)CCCCC1)c1cccc(C)n1 [Compound 561] |  | 6.09^[b] | logP (method marked [c] in Table 1): 7.15^[c]
CC(=NOCC1(CON=C(C)c2cc(C)cc(C)n2)CCC1)c1cc(C)cc(C)n1 [Compound 562] |  | 2.90^[b] | logP (method marked [c] in Table 1): 6.93^[c]
CC(=NOCC(C)(C)CON=C(C)c1nc2ccccc2[nH]1)c1nc2ccccc2[nH]1 [Compound 573] |  |  | logP (method marked [a] in Table 1): 2.10^[a]
CC(=NOCC(C)(C)CON=C(C)c1cccc(-c2ccccc2)n1)c1cccc(-c2ccccc2)n1 [Compound 575] |  |  | logP (method marked [a] in Table 1): 7.36^[a]
CC(=NOCC(CON=C(C)c1ccc(C)c(C)n1)Cc1ccccc1)c1ccc(C)c(C)n1 (stereo not drawn) [Compound 581] |  | 5.01^[b] | logP (method marked [c] in Table 1): 7.05^[c]
CC(=NOCC(CON=C(C)c1cc(C)cc(C)n1)Cc1ccccc1)c1cc(C)cc(C)n1 (stereo not drawn) [Compound 582] |  | 3.62^[b] | logP (method marked [c] in Table 1): 6.97^[c]
CC(=NOCC(CON=C(C)c1cccc(C)n1)Cc1ccccc1)c1cccc(C)n1 (stereo not drawn) [Compound 583] |  | 5.37^b] | logP (method marked [c] in Table 1): 6.34^[c]
CCOC(CON=C(C)c1cccc(C)n1)CON=C(C)c1cccc(C)n1 (stereo not drawn) [Compound 586] |  | 2.87^b] | logP (method marked [c] in Table 1): 4.76^[c]
CC(=NOCC1(CON=C(C)c2cccc(C)n2)CCCC1)c1cccc(C)n1 [Compound 587] |  | 5.49^b] | logP (method marked [c] in Table 1): 7.33^[c]
CC(=NOCC1(CON=C(C)c2ccc(C)c(C)n2)CCCC1)c1ccc(C)c(C)n1 [Compound 588] |  | 4.92^[b] | logP (method marked [c] in Table 1): 7.36^[c]
CC(=NOCC1(CON=C(C)c2cc(C)cc(C)n2)CCCC1)c1cc(C)cc(C)n1 [Compound 589] |  | 3.35^[b] | logP (method marked [c] in Table 1): 7.36^[c]
CC(=NOCC(C)(C)CON=C(C)c1ccc2c(n1)CCCCC2)c1ccc2c(n1)CCCCC2 [Compound 592] |  |  | logP (method marked [a] in Table 1): 6.04^[a]
CC(=NOCC1(CON=C(C)c2cccc(C)n2)CC(c2ccccc2)=NO1)c1cccc(C)n1 (stereo not drawn) [Compound 593] |  |  | logP (method marked [a] in Table 1): 3.74^[a]
CC1=NOC(CO/N=C(\C)c2cc(C)cc(C)n2)(CO/N=C(\C)c2cc(C)cc(C)n2)C1 [Compound 637] |  | 1.60^[b] | 
CCC1=NOC(CON=C(C)c2cc(C)cc(C)n2)(CON=C(C)c2cc(C)cc(C)n2)C1 (stereo not drawn) [Compound 639] |  | 1.88^[b] | 
Cc1cccc(C=NOCCCON=Cc2cccc(C)n2)n1 [Compound 669] |  | 2.54^[b] | 
CCC(CON=C(C)c1cccc(C)n1)CON=C(C)c1cccc(C)n1 (stereo not drawn) [Compound 677] |  | 4.38^[b] | logP (method marked [c] in Table 1): 5.97^[c]
